Like-named read-outs stand apart in the source and are kept apart here.
Tested on: SP2 luciferase (Luciola sp2 firefly luciferase), wild type, SEQ ID NO: 1
Assay: Km of SP2 luciferase for D-luciferin and ATP (luminescence kinetics, Michaelis-Menten fit)
Format: biochemical, Luciola sp2 (Malaysian firefly)
Conditions: for Km: 0.1 M Tris-HCl pH 8.0, MgSO4 8 mM in injected solution
Description: The measurements were carried out ten times for each sample, and the average of absorbency was used for the calculation.
A solution of 0.1 M Tris-HCl (pH 8.0) containing each of the purified luciferase, 4 mM of ATP, and 8 mM of MgSO4 was connected to the standard pump of the luminometer, and the measurements was carried out at the same time as addition of 50 μl of the solution to the well. A Luminescensor (ATTO) was used for the measurements. Measurements were repeated 3 times for each luciferin concentration.
The peak intensity of the obtained photo count value was plotted with respect to luciferin concentration S, defining the initial rate as V. The plots were subjected to curve fitting of Michaelis Menten type, thereby giving Km values. The curve fitting was performed by a nonlinear least-squares method, and the search of the parameter was performed by a Newton method.
Under various ATP concentrations, the luminous intensity of the obtained luciferase was measured. Based on the results, Km values with respect to ATP was determined.
Various 12 types of ATP solutions were prepared by adding ATP to 0.1 M Tris-HCl (pH 8.0). These solutions contain ATP at final concentration of 5, 10, 20, 40, 80, 160, 320, 480, 640, 800, 1280, 1600, or 1920 μM. These ATP solutions were each injected into 96-hole in a microplate at a volume of 50 μl. […] Measurement was repeated 3 times for each ATP concentration.
The peak intensities of the obtained photon count value were plotted with respect to ATP concentration S, with an initial rate V. The plots were subjected to curve fitting of Michaelis Menten type, thereby giving Km value. The curve fitting was performed by a nonlinear least-squares method, and the search of the parameter was performed by a Newton method.

SMILES	Km (D-luciferin 1 mM, read-out: Km ATP) [µM]	Km with respect to ATP, compared with known luciferase (FIG. 2) (comparison in words)	Km with respect to D-luciferin, compared with known luciferase (FIG. 2) (comparison in words)	Km (read-out: Km D-luciferin, ATP 4 mM) [µM]
Nc1ncnc2c1ncn2[C@@H]1O[C@H](COP(=O)(O)OP(=O)(O)OP(=O)(O)O)[C@@H](O)[C@H]1O [ATP]	188	higher Km values		
O=C(O)[C@H]1CSC(c2nc3ccc(O)cc3s2)=N1 [D-luciferin]			higher Km values	4.25
